Assay results reported in patent US10550105B2 (Ribon Therapeutics Inc., priority 2018, dated 2020).

Target: PARP7 (Homo sapiens (Human), UniProt Q7Z3E1)
Assay: Enzymatic assay for inhibition of PARP7: TR-FRET displacement of biotinylated Probe A from the TIPARP active site
Format: binding
Conditions: Table A-1
In short: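 Percent inhibition derives from the ratio of 665 to 615 nm emission, which reports how much Probe A remains bound to TIPARP. Plates sat 30 min at 25° C before the time-resolved read (320 nm excitation).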

PARP7, sequence (Q7Z3E1 whole entry): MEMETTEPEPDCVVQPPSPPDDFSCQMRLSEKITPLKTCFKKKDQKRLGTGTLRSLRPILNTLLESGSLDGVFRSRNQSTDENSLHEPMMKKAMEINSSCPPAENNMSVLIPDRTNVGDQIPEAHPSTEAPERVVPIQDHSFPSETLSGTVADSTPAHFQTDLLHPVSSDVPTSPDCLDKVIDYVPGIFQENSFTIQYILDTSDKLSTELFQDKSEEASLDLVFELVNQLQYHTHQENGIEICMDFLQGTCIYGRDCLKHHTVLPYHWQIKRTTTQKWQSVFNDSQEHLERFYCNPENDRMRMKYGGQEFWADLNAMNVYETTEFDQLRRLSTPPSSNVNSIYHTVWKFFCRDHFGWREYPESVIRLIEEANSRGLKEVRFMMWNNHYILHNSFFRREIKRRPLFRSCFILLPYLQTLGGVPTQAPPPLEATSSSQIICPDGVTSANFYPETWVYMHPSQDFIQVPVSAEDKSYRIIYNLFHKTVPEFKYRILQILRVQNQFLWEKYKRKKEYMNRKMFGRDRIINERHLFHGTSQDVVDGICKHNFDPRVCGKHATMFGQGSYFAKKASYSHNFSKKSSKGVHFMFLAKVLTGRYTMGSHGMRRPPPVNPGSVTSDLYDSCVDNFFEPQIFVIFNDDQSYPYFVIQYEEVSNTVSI

Row | Structure (SMILES) | IC50 [nM]
1 | O=C(C[C@@H]1CC[C@H](CNc2cn[nH]c(=O)c2C(F)(F)F)O1)N1CCN(c2ncc(C(F)(F)F)cn2)CC1 [Example 568 Isomer D, 5-((((2R,5S)-5-(2-Oxo-2-(4-(5-(trifluoromethyl)pyrimidin-2-yl)piperazin-1-yl)ethyl)tetrahydrofuran-2-yl)methyl)amino)-4-(trifluoromethyl)pyridazin-3(2H)-one] | < 100
2 | CC(CC(=O)N1CCN(c2ccc(C#N)cn2)CC1)OC[C@@H](C)Oc1cn[nH]c(=O)c1C(F)(F)F (stereo partly drawn) [Example 569, 6-(4-[3-[(2R)-2-[[6-Oxo-5-(trifluoromethyl)-1,6-dihydropyridazin-4-yl]oxy]propoxy]butanoyl]piperazin-1-yl)pyridine-3-carbonitrile] | 100 to 1000
3 | O=C(C[C@H]1CC[C@@H](COc2cn[nH]c(=O)c2C(F)(F)F)O1)N1CCN(c2ncc(C(F)(F)F)cn2)CC1 [Example 574 Isomer C, 5-(((2S,5R)-5-(2-Oxo-2-(4-(5-(trifluoromethyl)pyrimidin-2-yl)piperazin-1-yl)ethyl)-tetrahydrofuran-2-yl)methoxy)-4-(trifluoromethyl)pyridazin-3(2H)-one] | < 100
4 | O=C(C[C@@H]1CC[C@H](COc2cn[nH]c(=O)c2C(F)(F)F)O1)N1CCN(c2ncc(C(F)(F)F)cn2)CC1 [Example 574 Isomer D, 5-(((2R,5S)-5-(2-Oxo-2-(4-(5-(trifluoromethyl)pyrimidin-2-yl)piperazin-1-yl)ethyl)-tetrahydrofuran-2-yl)methoxy)-4-(trifluoromethyl)pyridazin-3(2H)-one] | < 100
5 | O=C(C[C@H]1CC[C@@H](COc2cn[nH]c(=O)c2Cl)O1)N1CCN(c2ncc(C(F)(F)F)cn2)CC1 [Example 575 Isomer C, 4-Chloro-5-(((2S,5R)-5-(2-oxo-2-(4-(5-(trifluoromethyl)pyrimidin-2-yl)piperazin-1-yl)ethyl)-tetrahydrofuran-2-yl)methoxy)pyridazin-3(2H)-one] | 100 to 1000
6 | O=C(C[C@@H]1CC[C@H](COc2cn[nH]c(=O)c2Cl)O1)N1CCN(c2ncc(C(F)(F)F)cn2)CC1 [Example 575 Isomer D, 4-Chloro-5-(((2R,5S)-5-(2-oxo-2-(4-(5-(trifluoromethyl)pyrimidin-2-yl)piperazin-1-yl)ethyl)-tetrahydrofuran-2-yl)methoxy)pyridazin-3(2H)-one] | ≥ 1000
7 | C[C@@H](COc1cn[nH]c(=O)c1Cl)OCCC(=O)N1CCN(c2ncc(C(F)(F)F)cn2)CC1 [Example 578 Isomer B, (S)-4-Chloro-5-(2-(3-oxo-3-(4-(5-(trifluoromethyl)pyrimidin-2-yl)piperazin-1-yl)propoxy)propoxy)pyridazin-3(2H)-one] | < 100
8 | C[C@@H](COCCC(=O)N1CCN(c2ncc(C#N)cn2)CC1)Oc1cn[nH]c(=O)c1C(F)(F)F [Example 579, 2-(4-[3-[(2S)-2-[[6-Oxo-5-(trifluoromethyl)-1,6-dihydropyridazin-4-yl]oxy]propoxy]propanoyl]piperazin-1-yl)pyrimidine-5-carbonitrile] | < 100
9 | N#Cc1ccc(N2CCN(C(=O)C[C@H]3CC[C@@H](COc4cn[nH]c(=O)c4C(F)(F)F)O3)CC2)nc1 [Example 580 Isomer C, 6-(4-[2-[(2R,5S)-5-([[6-oxo-5-(trifluoromethyl)-1,6-dihydropyridazin-4-yl]oxy]methyl)oxolan-2-yl]acetyl]piperazin-1-yl)pyridine-3-carbonitrile] | < 100
10 | N#Cc1ccc(N2CCN(C(=O)C[C@@H]3CC[C@H](COc4cn[nH]c(=O)c4C(F)(F)F)O3)CC2)nc1 [Example 580 Isomer D, 6-(4-[2-[(2S,5R)-5-([[6-oxo-5-(trifluoromethyl)-1,6-dihydropyridazin-4-yl]oxy]methyl)oxolan-2-yl]acetyl]piperazin-1-yl)pyridine-3-carbonitrile] | < 100
11 | N#Cc1ccc(N2CCN(C(=O)C[C@H]3CC[C@H](CNc4cn[nH]c(=O)c4C(F)(F)F)O3)CC2)nc1 [Example 581 Isomer C, 6-(4-[2-[(2R,5R)-5-([[6-oxo-5-(trifluoromethyl)-1,6-dihydropyridazin-4-yl]amino]methyl)oxolan-2-yl]acetyl]piperazin-1-yl)pyridine-3-carbonitrile] | < 100
12 | N#Cc1ccc(N2CCN(C(=O)C[C@@H]3CC[C@H](CNc4cn[nH]c(=O)c4C(F)(F)F)O3)CC2)nc1 [Example 581 Isomer D, 6-(4-[2-[(2S,5R)-5-([[6-oxo-5-(trifluoromethyl)-1,6-dihydropyridazin-4-yl]amino]methyl)oxolan-2-yl]acetyl]piperazin-1-yl)pyridine-3-carbonitrile] | < 100
13 | N#Cc1ccc(N2CCN(C(=O)C[C@H]3CC[C@@H](COc4cn[nH]c(=O)c4Cl)O3)CC2)nc1 [Example 582 Isomer C, 6-(4-[2-[(2R,5S)-5-[[(5-Chloro-6-oxo-1,6-dihydropyridazin-4-yl)oxy]methyl]oxolan-2-yl]acetyl]piperazin-1-yl)pyridine-3-carbonitrile] | ≥ 1000
14 | N#Cc1ccc(N2CCN(C(=O)C[C@@H]3CC[C@H](COc4cn[nH]c(=O)c4Cl)O3)CC2)nc1 [Example 582 Isomer D, 6-(4-[2-[(2S,5R)-5-[[(5-Chloro-6-oxo-1,6-dihydropyridazin-4-yl)oxy]methyl]oxolan-2-yl]acetyl]piperazin-1-yl)pyridine-3-carbonitrile] | ≥ 1000
15 | C[C@@H](COCCC(=O)N1CCN(c2ccc(C(F)(F)F)cn2)CC1)Oc1cn[nH]c(=O)c1C(F)(F)F [Example 584, 5-[[(2S)-1-(3-oxo-3-[4-[5-(trifluoromethyl)pyridin-2-yl]piperazin-1-yl]propoxy)propan-2-yl]oxy]-4-(trifluoromethyl)-2,3-dihydropyridazin-3-one] | < 100
16 | CC[C@@H](COCCC(=O)N1CCN(c2ncc(C(F)(F)F)cn2)CC1)Nc1cn[nH]c(=O)c1C(F)(F)F [Example 585, 5-[[(2S)-1-(3-Oxo-3-[4-[5-(trifluoromethyl)pyrimidin-2-yl]piperazin-1-yl]propoxy)butan-2-yl]amino]-4-(trifluoromethyl)-2,3-dihydropyridazin-3-one] | < 100
17 | CC[C@@H](COCCC(=O)N1CCN(c2ccc(Cl)cn2)CC1)Nc1cn[nH]c(=O)c1C(F)(F)F [Example 586, 5-[[(2S)-1-[3-[4-(5-Chloropyridin-2-yl)piperazin-1-yl]-3-oxopropoxy]butan-2-yl]amino]-4-(trifluoromethyl)-2,3-dihydropyridazin-3-one] | < 100
18 | CC[C@@H](COCCC(=O)N1CCN(c2ccc(C(F)(F)F)cn2)CC1)Nc1cn[nH]c(=O)c1C(F)(F)F [Example 587, 5-[[(2S)-1-(3-Oxo-3-[4-[5-(trifluoromethyl)pyridin-2-yl]piperazin-1-yl]propoxy)butan-2-yl]amino]-4-(trifluoromethyl)-2,3-dihydropyridazin-3-one] | < 100
19 | CC[C@@H](COCCC(=O)N1CCN(c2ncc(Cl)cn2)CC1)Nc1cn[nH]c(=O)c1C(F)(F)F [Example 588, 5-[[(2S)-1-[3-[4-(5-Chloropyrimidin-2-yl)piperazin-1-yl]-3-oxopropoxy]butan-2-yl]amino]-4-(trifluoromethyl)-2,3-dihydropyridazin-3-one] | < 100
20 | CC[C@@H](COCCC(=O)N1CCN(c2ccc(C#N)cn2)CC1)Oc1cn[nH]c(=O)c1C(F)(F)F [Example 589, 6-(4-[3-[(2S)-2-[[6-Oxo-5-(trifluoromethyl)-1,6-dihydropyridazin-4-yl]oxy]butoxy]propanoyl]piperazin-1-yl)pyridine-3-carbonitrile] | < 100
21 | N#Cc1cnc(N2CCN(C(=O)CCOCCOc3cn[nH]c(=O)c3C(F)(F)F)CC2)nc1 [Example 590, 2-(4-(3-(2-(6-Oxo-5-(trifluoromethyl)-1,6-dihydropyridazin-4-yloxy)ethoxy)propanoyl)piperazin-1-yl)pyrimidine-5-carbonitrile] | < 100
22 | CC[C@@H](COc1cn[nH]c(=O)c1C(F)(F)F)OCCC(=O)N1CCN(c2ncc(Cl)cn2)CC1 [Example 591 Isomer B, 5-[(2S)-2-[3-[4-(5-Chloropyrimidin-2-yl)piperazin-1-yl]-3-oxopropoxy]butoxy]-4-(trifluoromethyl)-2,3-dihydropyridazin-3-one] | < 100
23 | CC[C@@H](COCCC(=O)N1CCN(c2ncc(C#N)cn2)CC1)Oc1cn[nH]c(=O)c1C(F)(F)F [Example 592, 2-(4-[3-[(2S)-2-[[6-oxo-5-(trifluoromethyl)-1,6-dihydropyridazin-4-yl]oxy]butoxy]propanoyl]piperazin-1-yl)pyrimidine-5-carbonitrile] | < 100
24 | COC[C@@H](COCCC(=O)N1CCN(c2ccc(Cl)cn2)CC1)Nc1cn[nH]c(=O)c1C(F)(F)F [Example 593, 5-[[(2S)-1-[3-[4-(5-Chloropyridin-2-yl)piperazin-1-yl]-3-oxopropoxy]-3-methoxypropan-2-yl]amino]-4-(trifluoromethyl)-2,3-dihydropyridazin-3-one] | < 100
25 | COC[C@@H](COCCC(=O)N1CCN(c2ccc(C(F)(F)F)cn2)CC1)Nc1cn[nH]c(=O)c1C(F)(F)F [Example 594, 5-[[(2S)-1-Methoxy-3-(3-oxo-3-[4-[5-(trifluoromethyl)pyridin-2-yl]piperazin-1-yl]propoxy)propan-2-yl]amino]-4-(trifluoromethyl)-2,3-dihydropyridazin-3-one] | < 100
26 | CC(C)[C@@H](COCCC(=O)N1CCN(c2ccc(C#N)cn2)CC1)Nc1cn[nH]c(=O)c1C(F)(F)F [Example 595, 6-(4-[3-[(2S)-3-Methyl-2-[[6-oxo-5-(trifluoromethyl)-1,6-dihydropyridazin-4-yl]amino]butoxy]propanoyl]piperazin-1-yl)pyridine-3-carbonitrile] | < 100
27 | CO[C@H](C)[C@@H](COCCC(=O)N1CCN(c2ccc(C#N)cn2)CC1)Nc1cn[nH]c(=O)c1C(F)(F)F [Example 596, 6-(4-[3-[(2R,3R)-3-Methoxy-2-[[6-oxo-5-(trifluoromethyl)-1,6-dihydropyridazin-4-yl]amino]butoxy]propanoyl]piperazin-1-yl)pyridine-3-carbonitrile] | < 100
